Assay [1] has as its target T1, SLC38A2 (Homo sapiens, UniProt Q96QD8).
T1 sequence (Q96QD8 1-506): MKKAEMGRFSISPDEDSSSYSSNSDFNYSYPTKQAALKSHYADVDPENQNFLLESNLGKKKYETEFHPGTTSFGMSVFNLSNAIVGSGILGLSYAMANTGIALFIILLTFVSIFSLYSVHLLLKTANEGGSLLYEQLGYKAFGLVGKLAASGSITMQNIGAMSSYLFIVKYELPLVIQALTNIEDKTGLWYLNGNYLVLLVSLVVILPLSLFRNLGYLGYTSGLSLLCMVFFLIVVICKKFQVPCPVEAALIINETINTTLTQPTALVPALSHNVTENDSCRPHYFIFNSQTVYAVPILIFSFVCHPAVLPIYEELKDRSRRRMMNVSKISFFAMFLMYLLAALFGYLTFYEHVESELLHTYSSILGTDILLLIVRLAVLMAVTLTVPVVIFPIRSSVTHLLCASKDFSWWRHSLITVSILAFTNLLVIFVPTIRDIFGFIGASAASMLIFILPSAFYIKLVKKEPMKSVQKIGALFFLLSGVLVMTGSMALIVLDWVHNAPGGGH
As to the kind of experiment: thermal shift assay.

Assay [2] has as its target T2, SLC1A5 (Homo sapiens, UniProt Q15758).
T2 sequence (Q15758 1-541): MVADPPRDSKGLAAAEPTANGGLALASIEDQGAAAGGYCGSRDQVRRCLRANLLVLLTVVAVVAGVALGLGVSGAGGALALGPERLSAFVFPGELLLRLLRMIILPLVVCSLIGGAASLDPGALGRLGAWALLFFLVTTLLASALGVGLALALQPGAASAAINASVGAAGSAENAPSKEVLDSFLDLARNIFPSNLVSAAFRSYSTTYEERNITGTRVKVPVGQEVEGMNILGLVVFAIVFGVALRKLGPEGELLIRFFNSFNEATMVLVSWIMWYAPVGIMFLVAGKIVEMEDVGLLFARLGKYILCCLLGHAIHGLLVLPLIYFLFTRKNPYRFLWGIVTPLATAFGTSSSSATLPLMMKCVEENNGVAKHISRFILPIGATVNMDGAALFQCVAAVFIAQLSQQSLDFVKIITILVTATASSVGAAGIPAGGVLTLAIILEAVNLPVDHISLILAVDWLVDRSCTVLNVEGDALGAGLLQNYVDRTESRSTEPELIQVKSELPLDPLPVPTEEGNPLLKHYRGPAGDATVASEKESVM
Kind of assay: thermal shift assay.

Molecules are shown by their SMILES.

Take `Cc1cccc(COc2ccccc2CN(CC[C@H](N)C(=O)O)Cc2ccccc2OCc2cccc(C)c2)c1` [V-9302]: the Tm result is “V-9302 significantly altered the Tm values of SLC1A5, SLC38A2, SLC6A19, and ANO1” in assay [1]; “V-9302 significantly altered the Tm values of SLC1A5, SLC38A2, SLC6A19, and ANO1” in assay [2].

Values taken from article PMC12583703 (Nature Communications, 2025).
